The kinase profiling compilation of Christmann-Franck et al. (2016)

Columns and labels:
Experiment in all cases: KINOMEscan competition binding
Conditions in all cases: compound 10.0 µM
[1] = target: TTK (human) (UniProt P33981)
[2] = target: PLK3 (human) (UniProt Q9H4B4)
[3] = tested on: EGFR (human), P00533 [L858R]
[4] = target: STK33 (human) (UniProt Q9BYT3)
[5] = tested on: EGFR (human), P00533 [A750P; 747-749 del]
[6] = tested on: EGFR (human), P00533 [G719C; 746-750 del]
[7] = target: RPS6KA1 KD2 (human) (UniProt Q15418)
[8] = target: GAK (human) (UniProt O14976)
[9] = target: PLK1 (human) (UniProt P53350)
[10] = target: MYLK (human) (UniProt Q15746)
[11] = tested on: EGFR (human), P00533 [L861Q]
[12] = target: PTK2 (human) (UniProt Q05397)
[13] = tested on: EGFR (human), P00533 [P753S; 747-752 del]
[14] = target: SLK (human) (UniProt Q9H2G2)
[15] = target: PTK2B (human) (UniProt Q14289)
[16] = target: RPS6KA2 KD2 (human) (UniProt Q15349)
[17] = target: ALK (human) (UniProt Q9UM73)
[18] = tested on: EGFR (human), P00533 [752-759 del]
[19] = tested on: EGFR (human), P00533 [747-751 del / S ins]
[20] = target: MAPK7 (human) (UniProt Q13164)
[21] = target: NLK (human) (UniProt Q9UBE8)
[22] = target: DCLK1 (human) (UniProt O15075)
[23] = target: PLK4 (human) (UniProt O00444)
[24] = target: TNK1 (human) (UniProt Q13470)
[25] = target: ROS1 (human) (UniProt P08922)
[26] = target: DAPK1 (human) (UniProt P53355)
[27] = target: TYK2 JH2 pseudokinase (human) (UniProt P29597)
[28] = target: STK17B (human) (UniProt O94768)
[29] = target: ZAP70 (human) (UniProt P43403)
[30] = target: RPS6KA4 KD2 (human) (UniProt O75676)
[31] = target: PIM3 (human) (UniProt Q86V86)
[32] = target: PIM2 (human) (UniProt Q9P1W9)
[33] = target: PIK3CB (human) (UniProt P42338)
[34] = target: DAPK3 (human) (UniProt O43293)
[35] = target: DAPK2 (human) (UniProt Q9UIK4)
[36] = target: CAMK2G (human) (UniProt Q13555)
[37] = target: CAMK2D (human) (UniProt Q13557)
[38] = target: PIK3C2B (human) (UniProt O00750)
[39] = target: CAMKK2 (human) (UniProt Q96RR4)
[40] = target: MAP2K3 (human) (UniProt P46734)
[41] = target: ACVR2A (human) (UniProt P27037)
[42] = target: ACVR2B (human) (UniProt Q13705)
[43] = target: HIPK1 (human) (UniProt Q86Z02)
[44] = target: DYRK1B (human) (UniProt Q9Y463)
[45] = target: MAP2K4 (human) (UniProt P45985)
[46] = target: CDK7 (human) (UniProt P50613)
[47] = target: CHUK (human) (UniProt O15111)
[48] = target: TAOK1 (human) (UniProt Q7L7X3)
[49] = target: TAOK3 (human) (UniProt Q9H2K8)
[50] = target: MAPK15 (human) (UniProt Q8TD08)
[51] = target: PIM1 (human) (UniProt P11309)
[52] = target: CLK4 (human) (UniProt Q9HAZ1)
[53] = target: SRPK3 (human) (UniProt Q9UPE1)
[54] = target: CSNK2A1 (human) (UniProt P68400)
[55] = target: RIOK3 (human) (UniProt O14730)
[56] = target: CSNK2A2 (human) (UniProt P19784)
[57] = target: RPS6KA5 KD2 (human) (UniProt O75582)
[58] = target: PIP4K2B (human) (UniProt P78356)
[59] = target: CLK3 (human) (UniProt P49761)
[60] = target: MINK1 (human) (UniProt Q8N4C8)
[61] = target: RIOK1 (human) (UniProt Q9BRS2)
[62] = target: NEK2 (human) (UniProt P51955)
[63] = target: BMPR1B (human) (UniProt O00238)
[64] = target: STK17A (human) (UniProt Q9UEE5)
[65] = target: CLK1 (human) (UniProt P49759)
[66] = target: BMP2K (human) (UniProt Q9NSY1)
[67] = target: AAK1 (human) (UniProt Q2M2I8)
[68] = target: CLK2 (human) (UniProt P49760)

Chain of TTK (human) (P33981 whole entry, looked up): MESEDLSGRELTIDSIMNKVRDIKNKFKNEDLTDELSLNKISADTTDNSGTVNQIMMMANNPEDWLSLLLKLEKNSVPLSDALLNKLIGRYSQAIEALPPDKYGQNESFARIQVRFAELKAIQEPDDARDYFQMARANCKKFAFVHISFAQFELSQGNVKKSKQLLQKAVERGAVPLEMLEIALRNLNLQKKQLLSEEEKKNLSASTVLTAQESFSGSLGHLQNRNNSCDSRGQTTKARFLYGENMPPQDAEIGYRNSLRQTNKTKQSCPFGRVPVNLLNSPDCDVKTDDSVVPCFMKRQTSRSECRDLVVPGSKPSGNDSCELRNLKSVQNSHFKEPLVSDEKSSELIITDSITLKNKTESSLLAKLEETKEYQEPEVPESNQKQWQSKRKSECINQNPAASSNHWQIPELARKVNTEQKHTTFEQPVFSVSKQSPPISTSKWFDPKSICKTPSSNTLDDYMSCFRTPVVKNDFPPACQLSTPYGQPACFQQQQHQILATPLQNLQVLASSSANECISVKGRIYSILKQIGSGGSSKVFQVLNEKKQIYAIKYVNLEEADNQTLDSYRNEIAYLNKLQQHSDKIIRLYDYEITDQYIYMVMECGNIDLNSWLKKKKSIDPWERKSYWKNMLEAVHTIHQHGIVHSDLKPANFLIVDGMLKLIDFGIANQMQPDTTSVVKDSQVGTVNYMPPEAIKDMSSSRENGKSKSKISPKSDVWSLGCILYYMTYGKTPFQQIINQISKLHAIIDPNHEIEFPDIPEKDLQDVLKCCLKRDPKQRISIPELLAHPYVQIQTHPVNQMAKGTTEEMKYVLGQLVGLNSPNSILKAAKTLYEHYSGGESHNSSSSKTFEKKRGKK
Chain of STK17B (human) (O94768 whole entry, looked up): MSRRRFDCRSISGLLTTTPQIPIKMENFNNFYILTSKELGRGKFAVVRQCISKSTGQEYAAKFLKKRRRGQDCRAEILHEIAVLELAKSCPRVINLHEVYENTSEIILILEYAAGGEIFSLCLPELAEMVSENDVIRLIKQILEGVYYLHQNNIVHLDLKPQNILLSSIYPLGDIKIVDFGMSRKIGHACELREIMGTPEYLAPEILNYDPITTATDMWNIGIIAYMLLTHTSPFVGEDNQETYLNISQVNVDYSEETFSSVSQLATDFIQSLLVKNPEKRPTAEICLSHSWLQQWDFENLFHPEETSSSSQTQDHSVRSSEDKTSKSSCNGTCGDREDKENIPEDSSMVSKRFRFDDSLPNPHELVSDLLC
Chain of DAPK1 (human) (P53355 whole entry, looked up): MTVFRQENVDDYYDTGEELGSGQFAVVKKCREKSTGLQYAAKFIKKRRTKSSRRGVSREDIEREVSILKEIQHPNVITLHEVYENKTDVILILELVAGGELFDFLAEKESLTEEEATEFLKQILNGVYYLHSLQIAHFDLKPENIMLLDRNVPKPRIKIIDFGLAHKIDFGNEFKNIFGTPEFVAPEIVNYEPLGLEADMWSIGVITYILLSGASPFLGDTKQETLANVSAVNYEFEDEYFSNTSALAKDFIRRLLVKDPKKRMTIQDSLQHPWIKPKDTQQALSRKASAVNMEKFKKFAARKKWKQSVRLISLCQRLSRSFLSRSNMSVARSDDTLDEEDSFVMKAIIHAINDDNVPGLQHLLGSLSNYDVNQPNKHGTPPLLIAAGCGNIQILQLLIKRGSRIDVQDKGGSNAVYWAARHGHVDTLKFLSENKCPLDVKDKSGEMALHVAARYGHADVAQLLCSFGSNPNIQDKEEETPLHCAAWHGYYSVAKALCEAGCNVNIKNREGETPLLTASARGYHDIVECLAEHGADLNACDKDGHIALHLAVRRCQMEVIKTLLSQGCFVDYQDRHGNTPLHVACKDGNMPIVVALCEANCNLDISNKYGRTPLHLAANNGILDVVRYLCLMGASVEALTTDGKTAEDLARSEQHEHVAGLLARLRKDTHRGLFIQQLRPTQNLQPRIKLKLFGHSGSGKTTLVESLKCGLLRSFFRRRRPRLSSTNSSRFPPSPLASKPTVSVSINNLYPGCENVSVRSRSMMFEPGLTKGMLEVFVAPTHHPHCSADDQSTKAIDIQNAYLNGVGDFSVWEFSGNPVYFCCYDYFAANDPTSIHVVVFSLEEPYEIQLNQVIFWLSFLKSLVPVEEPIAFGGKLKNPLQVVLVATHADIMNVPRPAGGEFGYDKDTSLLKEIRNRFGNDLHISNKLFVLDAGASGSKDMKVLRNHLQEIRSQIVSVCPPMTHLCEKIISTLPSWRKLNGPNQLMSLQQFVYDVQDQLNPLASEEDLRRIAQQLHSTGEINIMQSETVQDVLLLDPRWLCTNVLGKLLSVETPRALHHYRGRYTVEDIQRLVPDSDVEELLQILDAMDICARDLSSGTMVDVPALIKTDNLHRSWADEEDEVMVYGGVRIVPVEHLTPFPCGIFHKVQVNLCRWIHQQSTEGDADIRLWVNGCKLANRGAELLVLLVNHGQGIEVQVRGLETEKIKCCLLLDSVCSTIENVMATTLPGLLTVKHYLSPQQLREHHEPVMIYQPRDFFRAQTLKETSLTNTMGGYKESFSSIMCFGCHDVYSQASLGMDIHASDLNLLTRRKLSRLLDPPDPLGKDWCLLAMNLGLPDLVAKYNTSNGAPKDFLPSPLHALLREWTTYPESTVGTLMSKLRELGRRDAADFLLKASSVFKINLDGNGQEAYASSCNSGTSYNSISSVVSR
Chain of PLK3 (human) (Q9H4B4 whole entry, looked up): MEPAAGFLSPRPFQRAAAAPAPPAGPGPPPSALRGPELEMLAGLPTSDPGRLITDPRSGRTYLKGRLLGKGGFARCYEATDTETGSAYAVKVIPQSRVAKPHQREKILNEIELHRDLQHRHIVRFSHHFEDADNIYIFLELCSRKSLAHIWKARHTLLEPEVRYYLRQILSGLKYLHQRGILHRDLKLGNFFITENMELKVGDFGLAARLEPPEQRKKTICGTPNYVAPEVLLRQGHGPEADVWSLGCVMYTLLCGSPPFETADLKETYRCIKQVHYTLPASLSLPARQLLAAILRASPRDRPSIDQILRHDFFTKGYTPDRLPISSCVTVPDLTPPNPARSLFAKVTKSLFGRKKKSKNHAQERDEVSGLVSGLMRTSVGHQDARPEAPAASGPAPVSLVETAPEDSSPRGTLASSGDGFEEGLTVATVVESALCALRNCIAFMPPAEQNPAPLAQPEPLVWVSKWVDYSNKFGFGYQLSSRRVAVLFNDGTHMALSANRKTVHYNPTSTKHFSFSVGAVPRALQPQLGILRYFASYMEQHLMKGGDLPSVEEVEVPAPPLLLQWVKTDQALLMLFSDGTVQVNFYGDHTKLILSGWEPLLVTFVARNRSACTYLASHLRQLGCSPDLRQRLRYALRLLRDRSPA
Chain of PLK4 (human) (O00444 whole entry, looked up): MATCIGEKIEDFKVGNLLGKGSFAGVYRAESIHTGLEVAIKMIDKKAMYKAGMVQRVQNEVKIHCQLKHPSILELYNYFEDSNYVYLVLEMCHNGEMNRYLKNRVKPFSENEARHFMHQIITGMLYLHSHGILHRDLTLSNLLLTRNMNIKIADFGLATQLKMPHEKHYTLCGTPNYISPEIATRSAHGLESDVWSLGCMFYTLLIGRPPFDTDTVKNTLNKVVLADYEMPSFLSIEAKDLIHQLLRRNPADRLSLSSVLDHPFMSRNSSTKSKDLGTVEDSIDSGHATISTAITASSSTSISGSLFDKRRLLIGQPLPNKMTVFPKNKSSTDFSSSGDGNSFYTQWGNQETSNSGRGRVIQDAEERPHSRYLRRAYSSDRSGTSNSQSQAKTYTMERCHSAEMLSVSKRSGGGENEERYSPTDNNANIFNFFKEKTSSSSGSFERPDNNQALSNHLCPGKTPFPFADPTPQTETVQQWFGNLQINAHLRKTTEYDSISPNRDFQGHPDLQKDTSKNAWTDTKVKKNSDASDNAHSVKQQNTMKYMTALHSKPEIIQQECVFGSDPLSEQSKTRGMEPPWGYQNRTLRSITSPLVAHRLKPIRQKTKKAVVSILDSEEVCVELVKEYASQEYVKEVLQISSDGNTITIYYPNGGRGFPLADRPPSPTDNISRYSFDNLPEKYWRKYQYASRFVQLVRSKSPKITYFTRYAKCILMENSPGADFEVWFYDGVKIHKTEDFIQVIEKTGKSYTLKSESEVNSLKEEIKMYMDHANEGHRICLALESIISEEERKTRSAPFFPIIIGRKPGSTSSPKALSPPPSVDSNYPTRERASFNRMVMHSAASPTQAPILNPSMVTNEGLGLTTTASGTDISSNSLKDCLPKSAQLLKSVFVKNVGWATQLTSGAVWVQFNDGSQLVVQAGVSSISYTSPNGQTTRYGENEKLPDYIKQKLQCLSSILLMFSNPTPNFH
Chain of DAPK2 (human) (Q9UIK4 whole entry, looked up): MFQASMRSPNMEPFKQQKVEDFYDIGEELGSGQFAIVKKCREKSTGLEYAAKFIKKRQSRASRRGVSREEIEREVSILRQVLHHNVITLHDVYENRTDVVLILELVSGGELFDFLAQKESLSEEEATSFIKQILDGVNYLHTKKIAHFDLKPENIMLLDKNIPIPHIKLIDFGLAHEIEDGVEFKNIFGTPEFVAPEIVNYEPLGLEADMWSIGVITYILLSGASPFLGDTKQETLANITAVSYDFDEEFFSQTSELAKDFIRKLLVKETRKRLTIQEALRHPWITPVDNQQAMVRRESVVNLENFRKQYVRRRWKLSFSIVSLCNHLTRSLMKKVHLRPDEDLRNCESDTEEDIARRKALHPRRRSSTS

## COc1cc(C(=O)NC2CCN(C)CC2)ccc1Nc1ncc2c(n1)N(CCc1ccccc1)CCC(=O)N2C
[1]
  kinase still bound, per cent of control: 5.2%
[2]
  kinase still bound, per cent of control: 6.5%
[3]
  kinase still bound, per cent of control: 22%
[4]
  kinase still bound, per cent of control: 13%
[5]
  kinase still bound, per cent of control: 19%
[6]
  kinase still bound, per cent of control: 23%
[7]
  kinase still bound, per cent of control: 32%
[8]
  kinase still bound, per cent of control: 6.4%
[9]
  kinase still bound, per cent of control: 1.9%
[10]
  kinase still bound, per cent of control: 31%
[11]
  kinase still bound, per cent of control: 28%
[12]
  kinase still bound, per cent of control: 34%
[13]
  kinase still bound, per cent of control: 31%
[14]
  kinase still bound, per cent of control: 22%
[15]
  kinase still bound, per cent of control: 17%
[16]
  kinase still bound, per cent of control: 32%
[17]
  kinase still bound, per cent of control: 22%
[18]
  kinase still bound, per cent of control: 33%
[19]
  kinase still bound, per cent of control: 28%

## COc1cc(N2CCC(C(N)=O)CC2)ccc1Nc1ncc2c(n1)N(C1CCCC1)[C@@H]1CCC[C@@H]1C(=O)N2C
[1]
  kinase still bound, per cent of control: 10%
[2]
  kinase still bound, per cent of control: 4.3%
[20]
  kinase still bound, per cent of control: 0.1%
[8]
  kinase still bound, per cent of control: 12%
[21]
  kinase still bound, per cent of control: 31%
[9]
  kinase still bound, per cent of control: 19%
[22]
  kinase still bound, per cent of control: 15%
[23]
  kinase still bound, per cent of control: 28%
[24]
  kinase still bound, per cent of control: 18%
[25]
  kinase still bound, per cent of control: 31%

## O=C1NC(=O)/C(=C/c2cc(-c3ccc(N4CCNCC4)nc3)c[nH]c2=O)S1
[26]
  kinase still bound, per cent of control: 4.4%
[27]
  kinase still bound, per cent of control: 14%
[28]
  kinase still bound, per cent of control: 18%
[29]
  kinase still bound, per cent of control: 11%
[30]
  kinase still bound, per cent of control: 3.2%
[31]
  kinase still bound, per cent of control: 30%
[32]
  kinase still bound, per cent of control: 14%
[33]
  kinase still bound, per cent of control: 6.2%
[34]
  kinase still bound, per cent of control: 10%
[35]
  kinase still bound, per cent of control: 10%

## Nc1cnc(/C=C/c2ccc(-c3ccc(S(N)(=O)=O)cc3)o2)cn1
[36]
  kinase still bound, per cent of control: 34%
[37]
  kinase still bound, per cent of control: 31%
[38]
  kinase still bound, per cent of control: 31%
[39]
  kinase still bound, per cent of control: 28%

## N=C1NC(=O)/C(=C/c2c[nH]c(=O)c(-c3ccc(S(N)(=O)=O)cc3)c2)S1
[40]
  kinase still bound, per cent of control: 2.2%
[41]
  kinase still bound, per cent of control: 25%
[42]
  kinase still bound, per cent of control: 16%
[43]
  kinase still bound, per cent of control: 16%
[44]
  kinase still bound, per cent of control: 23%
[45]
  kinase still bound, per cent of control: 24%
[46]
  kinase still bound, per cent of control: 26%
[47]
  kinase still bound, per cent of control: 18%
[26]
  kinase still bound, per cent of control: 12%
[48]
  kinase still bound, per cent of control: 4.2%
[49]
  kinase still bound, per cent of control: 22%
[50]
  kinase still bound, per cent of control: 3.3%
[51]
  kinase still bound, per cent of control: 16%
[52]
  kinase still bound, per cent of control: 28%
[53]
  kinase still bound, per cent of control: 33%
[54]
  kinase still bound, per cent of control: 26%
[55]
  kinase still bound, per cent of control: 17%
[56]
  kinase still bound, per cent of control: 25%
[57]
  kinase still bound, per cent of control: 2.2%
[28]
  kinase still bound, per cent of control: 28%
[58]
  kinase still bound, per cent of control: 22%
[30]
  kinase still bound, per cent of control: 0.9%
[59]
  kinase still bound, per cent of control: 3.5%
[60]
  kinase still bound, per cent of control: 24%
[31]
  kinase still bound, per cent of control: 12%
[61]
  kinase still bound, per cent of control: 31%
[32]
  kinase still bound, per cent of control: 4.8%
[62]
  kinase still bound, per cent of control: 30%
[63]
  kinase still bound, per cent of control: 5.7%
[23]
  kinase still bound, per cent of control: 24%
[64]
  kinase still bound, per cent of control: 23%
[65]
  kinase still bound, per cent of control: 16%
[66]
  kinase still bound, per cent of control: 13%
[67]
  kinase still bound, per cent of control: 13%
[34]
  kinase still bound, per cent of control: 9.4%
[35]
  kinase still bound, per cent of control: 5.2%
[68]
  kinase still bound, per cent of control: 5.1%
